Several values for one entry are separate records, joined by “and”; a condition that tells them apart may be missing. Equal entries are not always repeated. Entries after “also recorded” stand apart in the source; their conditions may differ.
Columns and labels:
Format in all cases: cell-based
MDA-MB-468 cells = assay: Assay for drug synergism with Akt isoform-specific knockdown; conditions: for Fold Selectivity (MK-FNE vs MK-2206 sensitization by knockdown): 72 hours
Method: MDA-MB-468 cells were plated in a 6-well plate to reach 80% confluence 10 hours post seeding. […] The cells were allowed to grow for 12 hours before addition of an equivalent volume of rinse medium containing varying concentrations of MK-2206, MK-FNE, or DMSO. The cells continued to grow for 72 hours before adding 1/10th volume of AlamarBlue® reagent to culture medium. The fluorescence emission signals at 590 nm were read by Cytation 3 cell imaging multi-mode reader (BioTeK) using an excitation wavelength of 560 nm. Curve fitting and data analysis were performed using Prism software. The effect of the different knockdowns on the drug action was expressed by calculating the fold selectivity (S): […]

Akt3 (pT305) = target: T1, Akt3 (pT305) (Homo sapiens, UniProt Q9Y243); assay: Western blot and ratiometric ELISA of Akt phosphorylation in HEK293T cells; conditions: 5 μM, 48 hours
T1 construct: expressed in transfected cells; host or cells: HEK293T
T1 sequence (Q9Y243 whole entry): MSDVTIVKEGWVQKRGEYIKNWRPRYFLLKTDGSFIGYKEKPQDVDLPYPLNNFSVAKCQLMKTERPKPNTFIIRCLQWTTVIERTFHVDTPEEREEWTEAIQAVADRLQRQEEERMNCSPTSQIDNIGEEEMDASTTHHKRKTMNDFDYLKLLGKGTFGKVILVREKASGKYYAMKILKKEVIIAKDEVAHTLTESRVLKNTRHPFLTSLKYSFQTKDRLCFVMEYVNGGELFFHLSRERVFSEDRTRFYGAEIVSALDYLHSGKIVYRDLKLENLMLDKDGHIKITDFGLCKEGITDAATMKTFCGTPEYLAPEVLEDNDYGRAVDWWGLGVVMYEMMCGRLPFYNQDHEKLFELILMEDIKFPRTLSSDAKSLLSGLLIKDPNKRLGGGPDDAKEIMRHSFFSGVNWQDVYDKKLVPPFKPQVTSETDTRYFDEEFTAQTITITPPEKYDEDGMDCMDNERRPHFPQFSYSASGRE
Method: (§1) After this time, cells were lysed and analyzed by antibodies for phosphorylated T305 (pT305) of Akt3, Halo (Akt), and Actin (loading control). […] FIG. 23F is a graph showing proliferation curves. […] After this time, the number of viable cells was calculated using AlamarBlue®. Proliferation curves were fitted to the PI50 equation (EQN. 4). […] FIG. 23H is a graph showing the percentage of viable cells. […] The percentage of growth relative to DMSO-treated cells is shown for the 48 hour point and the 72 hour point. FIG. 23I is a schematic showing the different methods used to derive the data in 23H.
The proteins in gel were transferred onto a PVDF membrane in Towbin buffer at 90 V for 2 hours at 4° C. or at 33 V overnight at 4° C. […] Proteins were visualized using Pierce™ ECL Western Blotting Substrate (32106, Thermo Fisher), Pierce™ ECL2 Western Blotting Substrate (32132, Thermo Fisher) or SuperSignal™ Western Blot Enhancer (46640, Thermo Fisher), depending on the signal strength.
Anti-Halo antibody at 1 μg/mL concentration in sodium bicarbonate buffer (pH 9.6) was added to a 96-well white plate (80 μL […]) at 4° C. for 24 hours. After this, the incubation buffer was removed and the wells were washed once with TBS-T2 (100 mM Tris, 150 mM NaCl 0.03% Tween-20) and then blocked in 5% BSA in TBS-T2 (280 μL per well) for 3-5 hours at room temperature. […]

Halo-Akt3 = target: T2, Halo-Akt3 (Homo sapiens, UniProt Q9Y243); assay: In-gel fluorescence assay (Cy5-azide click) of covalent labeling in transfected HEK293T cells; conditions: 5 μM, 48 hours
T2 construct: expressed in transfected cells; host or cells: HEK293T
T2 sequence (Q9Y243 whole entry): as above
Method: HEK293T cells were transfected with Halo-Akt3 for 20 hours, then treated with the stated compound (5 μM, 48 hours). After this time, cells were lysed and the labeling was assayed by click chemistry. […] FIGS. 19A, 19C top gels are images showing in gel fluorescence, Cy5 channel. M is a molecular weight ladder. FIG. 19A, 19C lower panels are images of western blots (probing for Halo and actin, respectively) transferred from the same gel as the top image. […] FIGS. 19E-19F are graphs showing quantitation of in-gel Cy5 signal intensity, divided by the western blot signal for Halo.
Cell transfection with the designated plasmid encoding a given HaloTag-Akt fusion gene was carried out following the general procedure described in Example 12. After 20-24 hours, the transfection media were aspirated and replaced with fresh 2 mL rinse MEM medium supplemented with 3% FBS containing the indicated concentration of inhibitor or the equivalent final volume of DMSO and the plates were incubated for the indicated period of time. Cells were then harvested and lysed following the general procedure described in Examples 11 and 13. A portion of the lysate was made up to 25 μL final volume containing, in final concentrations, 5% t-BuOH, [2 mM TCEP, 1% SDS, 1 mM CuSO4, 0.1 mM Cu(TBTA), 10 μM Cy5 azide made up as a 10× stock in water] and 1.0 mg/mL lysate protein. The samples were incubated at 37° C. for 30 min and subsequently quenched with 8 μL of 4×Laemmeli dye containing 6% f ME. After an additional 5-min incubation at 37° C., samples were resolved on a 10% SDS-PAGE gel following the general procedure described in Example 14. After electrophoresis, the gel was rinsed three times with ddH2O and imaged on a Bio-Rad Chemi-doc-MP Imager. Where applicable, the gel was transferred to a PVDF membrane for western blot analysis following the general procedure described in Example 15.

T47D MK-2206-res = assay: Cell viability assay (AlamarBlue), MK-2206-resistant line; conditions: 3 days
Method: as §1
Indicated cells were plated in a 96-well plate containing the DMEM complete medium (see Example 11 for complete medium formulation, 100 μL per well) with a density of 3,000-5,000 cells per well for 12 hours followed by the addition of varying concentrations of inhibitors in rinse medium (100 μL). The cells were allowed to grow for 72 hours and 100 μL of the culture medium was removed from each well. This was followed by the addition of 10 μL AlamarBlue® reagent to each well. The fluorescence emission signals at 590 nm were read by Cytation 3 cell imaging multi-mode reader (BioTeK) using an excitation wavelength of 560 nm. Curve fitting and data analysis were performed using Prism software.

Akt1 = target: T3, Akt1 (Homo sapiens, UniProt P31749); assay: In-gel fluorescence assay (Cy5-azide click) of covalent labeling in transfected HEK293T cells; conditions: 5 μM, 48 hours
T3 construct: expressed in transfected cells; host or cells: HEK293T
T3 sequence (P31749 whole entry): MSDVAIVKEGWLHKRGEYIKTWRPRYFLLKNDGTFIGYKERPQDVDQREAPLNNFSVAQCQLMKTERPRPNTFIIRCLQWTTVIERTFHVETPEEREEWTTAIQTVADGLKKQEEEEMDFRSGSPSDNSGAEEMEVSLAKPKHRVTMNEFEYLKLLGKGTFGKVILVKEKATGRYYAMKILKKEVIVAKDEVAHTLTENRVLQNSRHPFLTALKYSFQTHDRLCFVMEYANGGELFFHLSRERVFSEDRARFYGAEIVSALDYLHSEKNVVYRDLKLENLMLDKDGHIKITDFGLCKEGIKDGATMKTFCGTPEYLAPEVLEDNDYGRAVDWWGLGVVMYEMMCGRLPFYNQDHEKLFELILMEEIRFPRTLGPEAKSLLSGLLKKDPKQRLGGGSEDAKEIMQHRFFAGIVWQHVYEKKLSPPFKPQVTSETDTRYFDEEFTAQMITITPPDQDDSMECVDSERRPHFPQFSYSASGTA
Text: (§2) Overexpressed Akt proteins were labeled with Cy5-small-molecule-fluorophore-conjugated azide (Cy5-azide) using standard click chemistry. FIG. 16A top gel is an image showing Cy5 channel (used to evaluate the extent of covalent binding on each Akt protein). The lysate from non-transfected HEK 293T cells was also used for comparison. M, molecular weight ladder. […] FIG. 16B top gel is an image showing Cy5 channel. M is a molecular weight ladder. FIG. 16B bottom is an image showing western blots probing Halo and actin, respectively. […] Error bars designate s.d. […] Normalized fluorescent signal (NFS) was calculated from the following equation: NFS=[(Cy5(X μM drug)−Cy5(No transfection))/Halo(X μM drug)]÷[(Cy5(no drug)−Cy5(No transfection))/Halo(no drug)]. The relative fluorescent signal (RFS) is calculated from the following equation: RFS=(Cy5(X μM drug)/Halo(X μM drug)) (Cy5(no drug)/Halo(no drug))
(§3) Cell transfection with the designated plasmid encoding a given HaloTag-Akt fusion gene was carried out following the general procedure described in Example 12. After 20-24 hours, the transfection media were aspirated and replaced with fresh 2 mL rinse MEM medium supplemented with 3% FBS containing the indicated concentration of inhibitor or the equivalent final volume of DMSO and the plates were incubated for the indicated period of time. […]

Akt3 C119S mutant = target: T4, Akt3 C119S mutant (Homo sapiens, UniProt Q9Y243, C119S); assay: as above; conditions: 5 μM, 48 hours
T4 construct: expressed in transfected cells; host or cells: HEK293T
T4 sequence (Q9Y243 whole entry C119S): as the sequence (Q9Y243 whole entry) above, with C119S counted along it
Text: as §2, §3

endogenous Akt = assay: Biotin-azide pulldown of endogenous Akt kinases from native HEK293T cells; conditions: 5 μM, 12 hours
Method: A fraction of each sample was used for the input blot. The remaining cell lysates were labeled with biotin-azide using standard click chemistry followed by streptavidin enrichment.
HEK293T cells were split in 100 cm^2 plates. […] Cells were harvested, washed twice with chilled 1×DPBS and flash frozen. Cell lysis was performed in 200 μL lysis buffer following general procedure described in Example 13, Each lysate was subsequently diluted to 2 mg/mL with lysis buffer and a small fraction of each lysate sample was kept for input gel. The remaining lysates were subjected to click reaction with biotin-azide for 30 min at 37° C. The final concentrations of each component was: 2 mM TCEP, 5% t-BuOH, 1% SDS, 1 mM CuSO4, 0.1 mM Cu(TBTA), 10 μM biotin-azide and 1.2 mg/mL lysate protein. The lysate proteins were precipitated by adding four volumes of ethanol pre-chilled at −20° C. The sample was vortexed and incubated at −80° C. overnight (or at least 4 hours). The precipitant was collected by centrifugation at 20,000×g for 30 min at 4° C. and washed twice with pre-chilled methanol then acetone. The pellet was resuspended in 25 μL 50 mM HEPES (pH 7.6), 8% LDS and 0.5 μM EDTA and dissolved by vortexing and heating at 42° C. for 5 min. […]

[1] = knockdown of Akt3 (approximately 40-60%)

SMILES	sensitization to toxicity relative to control knockdown cells (MDA-MB-468 cells; [1])	phosphorylation of T305 of Akt3 (Akt3 (pT305))	covalent labeling of Halo-Akt3 (Halo-Akt3)	resistance of T47D MK-2206-res line (T47D MK-2206-res)	sensitization to toxicity relative to control knockdown cells (MDA-MB-468 cells; Akt1 or Akt2 knockdown (approximately 40-60%), on average)	Fold Selectivity (MK-FNE vs MK-2206 sensitization by knockdown) (MDA-MB-468 cells; siAKT1, two siRNAs)	Fold Selectivity (MK-FNE vs MK-2206 sensitization by knockdown) (MDA-MB-468 cells; siAKT3, two siRNAs)	covalent inhibition of Akt1 isoform (Akt1)	covalent modification of C119S mutant of Akt3 (Akt3 C119S mutant)	labeling of endogenous Akt (streptavidin enrichment, anti-pan-Akt blot) (endogenous Akt)
NC1(c2ccc(-c3nc4ccn5c(=O)[nH]nc5c4cc3-c3ccccc3)cc2)CCC1 [MK-2206]	2-3 fold	lowered phospho-T305 (pT305) levels considerably	–	–	–	–	–	–	–	–
C#CCCCC(F)/C=C/C(=O)NC1(c2ccc(-c3nc4ccn5c(=O)[nH]nc5c4cc3-c3ccccc3)cc2)CCC1.Cl (stereo not shown) [MK-FNE, (E)-8-(4-(1-(4-Fluoronon-2-en-8-ynamido)cyclobutyl)phenyl)-3-oxo-9-phenyl-2,3-dihydro-[1,2,4]triazolo[3,4-f][1,6]naphthyridin-7-ium Chloride]	around 8 fold	–	able to elicit covalent labeling	significantly less resistant	around 2 fold	0.5 and 0.4	3.9 and 3.7	–	–	–
C#CCCCC(O)/C=C/C(=O)NC1(c2ccc(-c3nc4ccn5c(=O)[nH]nc5c4cc3-c3ccccc3)cc2)CCC1.Cl (stereo not shown) [MK-HNE, (E)-8-(4-(1-(4-Hydroxynon-2-en-8-ynamido)cyclobutyl)phenyl)-3-oxo-9-phenyl-2,3-dihydro-[1,2,4]triazolo[3,4-f][1,6]naphthyridin-7-ium Chloride]	–	did not affect phosphorylation levels	labeling was observed; also recorded: able to elicit covalent labeling	–	–	–	–	no covalent inhibition	no covalent modification	enrichment of endogenous Akt protein(s)
